Among the data in patent publication US10947248B2, “4β-amidotriazole linked podophyllotoxin derivatives as potential anticancer agents” (COUNCIL OF SCIENTIFIC & INDUSTRIAL RESEARCH, priority 2016, dated 2021) are melting point and IC50 values, retold here.

Like-named read-outs stand apart in the source and are kept apart here.

In series [1] the test system is Hela (human cervical cancer). In words: MTT in vitro cytotoxicity assay, Hela. The series is classed as cell-based. Conditions: read-out: IC50 Hela.
Series [2] deals with MCF-7 (human breast cancer). The series can be described thus: MTT in vitro cytotoxicity assay, MCF-7. The series is classed as cell-based. Conditions: read-out: IC50 MCF-7.
In series [3] the test system is DU-145 (human prostate cancer). The series can be described thus: MTT in vitro cytotoxicity assay, DU-145. The series is classed as cell-based. Conditions: read-out: IC50 DU-145.
Another series deals with A549 (human lung cancer). In words: MTT in vitro cytotoxicity assay, A549. The series is classed as cell-based. Conditions: read-out: IC50 A549.
The subject of the next series is HepG2 (liver cancer). In words: MTT in vitro cytotoxicity assay, HepG2. The series is classed as cell-based. Conditions: Homo sapiens, read-out: IC50 HepG2.
A further series has as its system HT-29 (colon cancer). In words: MTT in vitro cytotoxicity assay, HT-29. The series is classed as cell-based. Conditions: Homo sapiens, read-out: IC50 HT-29.
Series [4] relates to human cancer cell lines (Hela, MCF-7, DU-145, A549, HepG2, HT-29). The series can be described thus: MTT in vitro cytotoxicity assay, all tested human cancer cell lines. The series is classed as cell-based. Conditions: range over Hela, read-out: IC50 values ranging over all tested human cancer cell lines. The source says: The IC50 values (in μM) for compounds 8a, 8c, 8n, 8p, 9c and 9p have been illustrated in Table 1.

`COc1cc(OC)cc(-n2cc(C(=O)N[C@@H]3c4cc5c(cc4[C@@H](c4cc(OC)c(OC)c(OC)c4)[C@H]4C(=O)OC[C@@H]43)OCO5)nn2)c1` registered a melting point of 145 to 148 °C.

`COc1cc([C@@H]2c3cc4c(cc3[C@@H](NC(=O)c3cn(-c5cc(OC)c(OC)c(OC)c5)nn3)[C@H]3COC(=O)[C@H]23)OCO4)cc(OC)c1OC` yielded a melting point of 181 to 183 °C.

`COc1cc([C@@H]2c3cc4c(cc3[C@@H](NC(=O)c3cn(-c5ccc6c(c5)OCO6)nn3)[C@H]3COC(=O)[C@H]23)OCO4)cc(OC)c1OC` gave a melting point of 188 to 191 °C.

For `COc1cc(Cn2cc(C(=O)N[C@@H]3c4cc5c(cc4[C@@H](c4cc(OC)c(OC)c(OC)c4)[C@H]4C(=O)OC[C@@H]43)OCO5)nn2)cc(OC)c1OC`, the melting point was 189 to 192 °C.

Compound `COc1cc([C@@H]2c3cc4c(cc3[C@@H](NC(=O)c3cn(-c5ccccc5)nn3)[C@H]3COC(=O)[C@H]23)OCO4)cc(OC)c1OC` [Compound 8a, N-((5S,5aS,8aR,9R)-8-oxo-9-(3,4,5-trimethoxyphenyl)-5,5a,6,8,8a,9-hexahydrofuro[3′,4′:6,7]naphtho[2,3-d][1,3]dioxol-5-yl)-1-phenyl-1H-1,2,3-triazole-4-carboxamide] came in with a melting point of 170 to 172 °C. The IC50 in series [1] (HeLa, 48 h) stood at 2470 ± 240 nM. The IC50 in series [2] (MCF7, 48 h) is 1450 ± 460 nM. Further, the IC50 in series [3] (DU-145, 48 h) was determined as 1310 ± 110 nM. Moreover, the IC50 in the series on A549 (human lung cancer) (A549, 48 h) was 1820 ± 110 nM. Also, the IC50 in the series with HepG2 (liver cancer) (HepG2, 48 h) amounted to 1940 ± 130 nM. Further, the IC50 in the series with HT-29 (colon cancer) (HT-29, 48 h) is 5370 ± 740 nM. Also, in series [4], the IC50 lay within 700 to 4000 nM.

In turn, `COc1ccc(-n2cc(C(=O)N[C@@H]3c4cc5c(cc4[C@@H](c4cc(OC)c(OC)c(OC)c4)[C@H]4C(=O)OC[C@@H]43)OCO5)nn2)cc1` [Compound 8c, 1-(4-methoxyphenyl)-N-((5S,5aS,8aR,9R)-8-oxo-9-(3,4,5-trimethoxyphenyl)-5,5a,6,8,8a,9-hexahydrofuro[3′,4′:6,7]naphtho[2,3-d][1,3]dioxol-5-yl)-1H-1,2,3-triazole-4-carboxamide] yielded a melting point of 195 to 197 °C. The IC50 in series [1] (HeLa, 48 h) worked out at 6490 ± 220 nM. Moreover, the IC50 in series [2] (MCF7, 48 h) is 1110 ± 100 nM. For the same compound, the IC50 in series [3] (DU-145, 48 h) amounted to 990 ± 70 nM. The half-maximal inhibitory concentration (IC50) with A549 (human lung cancer) (A549, 48 h) turned out to be 1610 ± 380 nM. Moreover, in the series with HepG2 (liver cancer) (HepG2, 48 h), the IC50 was found to be 2790 ± 540 nM. The IC50 in the series on HT-29 (colon cancer) (HT-29, 48 h) came out at 11400 ± 1660 nM. In addition, the IC50 in series [4] lay in the range of 700 to 4000 nM.

Compound `COc1cc([C@@H]2c3cc4c(cc3[C@@H](NC(=O)c3cn(-c5ccc(C(F)(F)F)cc5)nn3)[C@H]3COC(=O)[C@H]23)OCO4)cc(OC)c1OC` [Compound 8n, N-((5S,5aS,8aR,9R)-8-oxo-9-(3,4,5-trimethoxyphenyl)-5,5a,6,8,8a,9-hexahydrofuro[3′,4′:6,7]naphtho[2,3-d][1,3]dioxol-5-yl)-1-(4-(trifluoromethyl)phenyl)-1H-1,2,3-triazole-4-carboxamide] returned a melting point of 190 to 194 °C. In series [1] (HeLa, 48 h), the IC50 came out at 1210 ± 270 nM. For the same compound, the IC50 in series [2] (MCF7, 48 h) worked out at 1350 ± 70 nM. In addition, the IC50 in series [3] (DU-145, 48 h) was 890 ± 20 nM. Also, the IC50 in the series with A549 (human lung cancer) (A549, 48 h) was 1960 ± 80 nM. Moreover, the half-maximal inhibitory concentration (IC50) in the series with HepG2 (liver cancer) (HepG2, 48 h) stood at 1210 ± 270 nM. Moreover, the IC50 with HT-29 (colon cancer) (HT-29, 48 h) was determined as 4400 ± 50 nM. The half-maximal inhibitory concentration (IC50) in series [4] lay within 700 to 4000 nM.

`COc1cc([C@@H]2c3cc4c(cc3[C@@H](NC(=O)c3cn(-c5ccc(Cl)cc5)nn3)[C@H]3COC(=O)[C@H]23)OCO4)cc(OC)c1OC` [Compound 8p, 1-(4-chlorophenyl)-N-((5S,5aS,8aR,9R)-8-oxo-9-(3,4,5-trimethoxyphenyl)-5,5a,6,8,8a,9-hexahydrofuro[3′,4′:6,7]naphtho[2,3-d][1,3]dioxol-5-yl)-1H-1,2,3-triazole-4-carboxamide] came in with a melting point of 222 to 225 °C. In addition, the IC50 in series [1] (HeLa, 48 h) turned out to be 780 nM. Moreover, the IC50 in series [2] (MCF7, 48 h) was 970 nM. Moreover, in series [3] (DU-145, 48 h), the IC50 amounted to 700 nM. For the same compound, in the series on A549 (human lung cancer) (A549, 48 h), the IC50 stood at 1200 nM. In the series with HepG2 (liver cancer) (HepG2, 48 h), the half-maximal inhibitory concentration (IC50) turned out to be 780 nM. Also, the 50% inhibitory concentration (IC50) with HT-29 (colon cancer) (HT-29, 48 h) was 4110 nM. For the same compound, the IC50 in series [4] lay within 700 to 4110 nM.

`COc1ccc(Cn2cc(C(=O)N[C@@H]3c4cc5c(cc4[C@@H](c4cc(OC)c(OC)c(OC)c4)[C@H]4C(=O)OC[C@@H]43)OCO5)nn2)cc1` [Compound 9c, 1-(4-methoxybenzyl)-N-((5S,5aS,8aR,9R)-8-oxo-9-(3,4,5-trimethoxyphenyl)-5,5a,6,8,8a,9-hexahydrofuro[3′,4′:6,7]naphtho[2,3-d][1,3]dioxol-5-yl)-1H-1,2,3-triazole-4-carboxamide] showed a melting point of 174 to 177 °C. Moreover, the IC50 in series [1] (HeLa, 48 h) came out at 3460 ± 60 nM. In addition, the IC50 in series [2] (MCF7, 48 h) turned out to be 3320 ± 550 nM. Besides, the IC50 in series [3] (DU-145, 48 h) was determined as 1760 ± 270 nM. Moreover, the IC50 with A549 (human lung cancer) (A549, 48 h) amounted to 5820 ± 430 nM. Moreover, the IC50 with HepG2 (liver cancer) (HepG2, 48 h) was determined as 1960 ± 70 nM. Also, in the series with HT-29 (colon cancer) (HT-29, 48 h), the IC50 was found to be 17500 ± 340 nM. In series [4], the IC50 lay in the range of 700 to 4000 nM.

As for `COc1cc([C@@H]2c3cc4c(cc3[C@@H](NC(=O)c3cn(Cc5ccc(Cl)cc5)nn3)[C@H]3COC(=O)[C@H]23)OCO4)cc(OC)c1OC` [Compound 9p, 1-(4-chlorobenzyl)-N-((5S,5aS,8aR,9R)-8-oxo-9-(3,4,5-trimethoxyphenyl)-5,5a,6,8,8a,9-hexahydrofuro[3′,4′:6,7]naphtho[2,3-d][1,3]dioxol-5-yl)-1H-1,2,3-triazole-4-carboxamide], the melting point was in the range of 180 to 184 °C. In series [1] (HeLa, 48 h), the IC50 is 3570 ± 160 nM. For the same compound, in series [2] (MCF7, 48 h), the IC50 amounted to 5300 ± 390 nM. In addition, in series [3] (DU-145, 48 h), the IC50 came to 2370 ± 80 nM. Moreover, the IC50 in the series with A549 (human lung cancer) (A549, 48 h) stood at 8060 ± 60 nM. Further, the IC50 with HepG2 (liver cancer) (HepG2, 48 h) was found to be 3540 ± 370 nM. In the series with HT-29 (colon cancer) (HT-29, 48 h), the IC50 came out at 23700 ± 380 nM. The 50% inhibitory concentration (IC50) in series [4] is 700 to 4000 nM.

In the case of `COc1cc([C@@H]2c3cc4c(cc3[C@@H](O[C@@H]3O[C@@H]5CO[C@@H](C)O[C@H]5[C@H](O)[C@H]3O)[C@H]3COC(=O)[C@H]23)OCO4)cc(OC)c1O` [Etoposide, reference compound], the IC50 in series [1] (Hela, 48 h of drug treatment, average of three individual experiments) amounted to 2710 ± 520 nM; in series [2] (MCF7, MCF-7, 48 h of drug treatment, average of three individual experiments) it was 1620 ± 140 nM; in series [3] (DU-145, 48 h of drug treatment, average of three individual experiments) it was 2350 ± 50 nM; with A549 (human lung cancer) (A549, 48 h of drug treatment, average of three individual experiments), 1970 ± 170 nM; in the series on HepG2 (liver cancer) (HepG2, 48 h of drug treatment, average of three individual experiments) it was 2840 ± 270 nM; in the series on HT-29 (colon cancer) (HT-29, 48 h of drug treatment, average of three individual experiments), 1870 ± 310 nM.

Regarding `COc1cc([C@@H]2c3cc4c(cc3[C@H](O)[C@H]3COC(=O)[C@H]23)OCO4)cc(OC)c1OC` [Podophyllotoxin], the IC50 was found to be 3450 ± 290 nM in series [1] (HeLa, 48 h); 3060 ± 240 nM in series [2] (MCF7, 48 h); 4150 ± 630 nM in series [3] (DU-145, 48 h); 4600 ± 420 nM in the series on A549 (human lung cancer) (A549, 48 h); 6630 ± 170 nM in the series with HepG2 (liver cancer) (HepG2, 48 h); 4780 ± 160 nM in the series with HT-29 (colon cancer) (HT-29, 48 h).

In general, melting point refers to the temperature of the solid-liquid transition. One may read the IC50 as the concentration that gives 50% inhibition.
